Laboratory results published in ChEMBL document CHEMBL1152151, “Synthesis and preliminary pharmacological evaluation of N-2-(4-(4-(2-substitutedthiazol-4-yl) piperazin-1-yl)-2-oxoethyl)acetamides as novel atypical antipsychotic agents” (Bioorg Med Chem Lett, 2008).
The source made the active and inactive calls. The rule behind the calls is not given here.

Key:
Mus musculus [1] = test: Ratio of inhibition of quipazine-induced head twitches to inhibition of apomorphine-induced cage climbing behavior in Swiss albino mouse at 10 mg/kg; type: functional
Mus musculus [2] = test: Inhibition of dopamine D2 receptor-mediated apomorphine-induced cage climbing behavior in Swiss albino mouse at 10 mg/kg measured on 30 mins; type: functional; settings: 0.5 h
Mus musculus [3] = test: Inhibition of dopamine D2 receptor-mediated apomorphine-induced cage climbing behavior in Swiss albino mouse at 10 mg/kg measured on 20 mins; type: functional
Mus musculus [4] = organism: Mus musculus; test: Toxic cataleptic effect in Swiss albino mouse assessed as maximum average cataleptic time; type: toxicity, organism-based; settings: in vivo
Mus musculus [5] = test: Inhibition of 5HT2A receptor-mediated quipazine-induced head twitches in Swiss albino mouse at 10 mg/kg; type: functional
Mus musculus [6] = test: Inhibition of dopamine D2 receptor-mediated apomorphine-induced cage climbing behavior in Swiss albino mouse at 10 mg/kg measured on 10 mins; type: functional
Mus musculus [7] = organism: Mus musculus; test: Toxic cataleptic effect against Swiss albino mouse; type: toxicity, organism-based; settings: in vivo
Mus musculus [8] = test: Inhibition of dopamine D2 receptor-mediated apomorphine-induced cage climbing behavior in Swiss albino mouse at 10 mg/kg; type: functional
Mus musculus [9] = test: Inhibition of 5HT2A receptor-mediated quipazine-induced head twitches in Swiss albino mouse at 0.6 mg/kg, ip; type: functional, organism-based; design: dose 0.6 mg/kg
Mus musculus [10] = test: Inhibition of dopamine D2 receptor-mediated apomorphine-induced cage climbing behavior in Swiss albino mouse at 1 mg/kg, ip; type: functional, organism-based; design: dose 1 mg/kg

Row | Structure (SMILES) | Ratio (Mus musculus [1]) | inhibition in vivo at 10 mg/kg (Mus musculus [2]) [%] | inhibition in vivo at 10 mg/kg (Mus musculus [3]) [%] | Activity (Mus musculus [4]) [s] | inhibition in vivo at 10 mg/kg (Mus musculus [5]) [%] | inhibition in vivo at 10 mg/kg (Mus musculus [6]) [%] | Activity (Mus musculus [7]) | inhibition in vivo at 10 mg/kg (Mus musculus [8]) [%] | Activity (Mus musculus [9]) | Activity (Mus musculus [10])
1 | CC(=O)NCC(=O)N1CCN(CCc2ccc(-c3nc(C)sc3C)cc2)CC1 | 0.8875 | 80 | 65 | 5.12 | 71 | 65 | Non-toxic | 80 |  | 
2 | CNc1nc(-c2ccc(CCN3CCN(C(=O)CNC(C)=O)CC3)cc2)cs1 | 0.9 | 60 | 50 | 16.54 | 54 | 60 | Non-toxic | 60 |  | 
3 | Cc1nc2n(c(=O)c1CCN1CCC(c3noc4cc(F)ccc34)CC1)CCCC2 [RISPERIDONE] | 1.0989 | 90 | 91 | 2.54 | 100 | 91 | Non-toxic | 91 | Active | 
4 | O=C(CCCN1CCC(O)(c2ccc(Cl)cc2)CC1)c1ccc(F)cc1 |  |  |  |  |  |  |  |  |  | Active
5 | CC(=O)NCC(=O)N1CCN(CCc2ccc(-c3csc(C)n3)cc2)CC1 | 0.2857 | 70 | 65 | 4.62 | 20 | 70 | Non-toxic | 70 |  | 
